# Data reported in patent US9630896B2, “2,5-dialkyl-4-H/halo/ether-phenol compounds” (Tansna Therapeutics Inc, priority 2013, dated 2017).
# Experiments:
# [1] = tested on: MES Model (maximal electroshock seizure); experiment: Maximal electroshock seizure (MES) test; assay type: in vivo; settings: Mouse, IP
# Protocol: 3. Maximal Electroshock Seizure (MES) Test
# MES test is performed as in the Minimal Clonic Seizure (6 Hz) test, but the MES test utilizes a current of 50 mA (mice) or 150 mA (rats), frequency of 50-60 Hz, and a stimulation time of 0.2 seconds. Upon stimulation, untreated test subjects display immediate severe tonic seizure (including maximal extension of legs) and the body becomes stiffened for roughly 10-15 seconds. Next, clonic seizures start (including shaking of body and paddling movements of the hind limbs) and may last 20-30 seconds (Castel-Branco M M, Alves G L, Figueiredo I V, Falcao A C, Caramona M M: The Maximal Electroshock Seizure (MES) Model in the Preclinical Assessment of Potential New Antiepileptic Drugs. Methods and Findings in Experimental and Clinical Pharmacology 2009; 31:101-06). Test subjects that display reduced or eliminated symptoms of MES-type seizures during and/or after stimulation are considered protected.
# [2] = tested on: 6 Hz 32 mA Epilepsy Model (electrically induced psychomotor seizure); experiment: Minimal clonic seizure (6 Hz, 32 mA) test; assay type: in vivo, Mouse; settings: for animals protected/animals tested: 6 Hz 32 mA, Mouse, IP; for ED50: Mus musculus, ip, 6 Hz 32 mA dose response (Test 7-2), mice
# From the text: (§1) 1. Minimal Clonic Seizure (6 Hz, 32 mA or 44 mA) Test
# (§2) Test compounds are pre-administered to mice via i.p. injection. At varying times, individual mice (four per time point) are challenged with sufficient current delivered through corneal electrodes to elicit a psychomotor seizure in 97% of animals (32 mA or 44 mA for 3 s) (Toman J E P, Everett G M, Richards R K: The Search for New Drugs against Epilepsy. Texas Reports on Biology and Medicine 1952; 10:96-104). Untreated mice will display seizures characterized by a minimal clonic phase followed by stereotyped, automatistic behaviors described originally as being similar to the aura of human patients with partial seizures. Animals not displaying this behavior are considered protected. The test compounds are evaluated quantitatively by measuring the responses at varying doses at a determined time of peak effect (TPE).
# [3] = tested on: 6 Hz 44 mA Epilepsy Model (electrically induced psychomotor seizure); experiment: Minimal clonic seizure (6 Hz, 44 mA) test; assay type: in vivo; settings: Mouse, IP, 100 mg/kg
# From the text: as §1, §2
# [4] = tested on: minimal muscular or neurological impairment (rotorod); experiment: Acute toxicity - minimal motor impairment (rotorod); assay type: in vivo; settings: for Toxicity Ratio: Mouse
# From the text: 4. Acute Toxicity-Minimal Motor Impairment
# To assess a compound's undesirable side effects (toxicity), animals are monitored for overt signs of impaired neurological or muscular function. In mice, the rotorod (Dunham N W, Miya T S: A Note on a Simple Apparatus for Detecting Neurological Deficit in Rats and Mice. Journal of the American Pharmaceutical Association 1957; 46:208-09), procedure is used to disclose minimal muscular or neurological impairment. When a mouse is placed on a rod that rotates at a speed of 6 rpm, the animal can maintain its equilibrium for long periods of time. The animal is considered toxic if it falls off this rotating rod three times during a 1-min period. In rats, minimal motor deficit is indicated by ataxia, which is manifested by an abnormal, uncoordinated gait. Rats used for evaluating toxicity are examined before the test drug is administered, since individual animals may have peculiarities in gait, equilibrium, placing response, etc., which might be attributed erroneously to the test substance.
# [5] = tested on: Corneal Kindled Mouse (Stage 5 seizures); experiment: Corneal kindled mouse (focal seizures) - Test 26; assay type: in vivo; settings: IP, TPE 0.5 hrs
# From the text: 2. Corneal Kindling (Focal Seizures)
# Mice are kindled electrically with 3 sec stimulation, 8 mA, 60 Hz, and corneal electrodes to a criterion of 10 consecutive Stage 5 seizures (facial clonus and head nodding progressing to forelimb clonus, and finally rearing and falling accompanied by a generalized clonic seizure as described by Racine (Racine R J: Modification of Seizure Activity by Electrical Stimulation. II. Motor Seizure. Electroen Clin Neuro 1972; 32:281-94). Stage 5 is generally reached after twice daily stimulation for 8 days. With continued stimulation once a day, animals usually progress to a reproducible Stage 5 after 10-14 additional days. At least 72 hours after the mice have been kindled, the test substance is administered either intraperitoneal (i.p.) or per os (p.o.) and, at the previously determined TPE, each animal is given the electrical stimulus indicated above. Following stimulation, the animals are observed for the presence or absence of the rearing and falling criteria of a Stage 5 seizure. Treated animals not displaying a Stage 3, 4, or 5 seizure are considered protected. The dose of the test substance is varied between the limits of 0 and 100% efficacy, and the ED50 and 95% confidence intervals calculated by probit analysis. Mean values and the S.E.M. are calculated for the length of clonus and seizure duration and p values are determined by the Student's t-test.
# [6] = tested on: 6 Hz 32 mA Epilepsy Model (electrically induced psychomotor seizure); experiment: Minimal clonic seizure (6 Hz, 32 mA) test; assay type: in vivo; settings: Mouse, Oral, 100 mg/kg, TPE N/A
# [7] = MES screen table, IP, 100 mg/kg, TPT N/A
# [8] = Test 7-1 table, IP, 30 mg/kg, TPT NA
# [9] = Test 7-1 table, IP, 100 mg/kg, TPT N/A
# [10] = Test 7-1 table, IP, 300 mg/kg, TPT 0.5 hrs
# [11] = Test 7-3 table, IP, 100 mg/kg, TPT N/A
compound,measurement,setting,value
"CCc1cc(Br)c(C(C)C)cc1O [Ex. 64, 4-Bromo-2-ethyl-5-isopropyl-phenol]",animals protected/animals tested,"[1]; 30 mg/kg, TPE NA",0/4
same,animals protected/animals tested,"[1]; 100 mg/kg, TPE 0.5 hrs",1/4
same,animals protected/animals tested,"[1]; 300 mg/kg, TPE 0.5 hrs",2/4
same,animals protected/animals tested,"[2]; 30 mg/kg, TPE 0.5 hrs",1/4
same,animals protected/animals tested,"[2]; 100 mg/kg, TPE 0.5 hrs",3/4
same,animals protected/animals tested,"[2]; 300 mg/kg, TPE 0.5 hrs",4/4
same,animals protected/animals tested,[3]; TPE 0.25 hrs,1/4
same,Toxicity Ratio,"[4]; MES screen table, IP, 30 mg/kg, TPT NA",0/8
same,Toxicity Ratio,[4]; [7],0/8
same,Toxicity Ratio,"[4]; MES screen table, IP, 300 mg/kg, TPT 0.5 hrs",6/8
same,Toxicity Ratio,[4]; [8],0/8
same,Toxicity Ratio,[4]; [9],0/8
same,Toxicity Ratio,[4]; [10],6/8
same,Toxicity Ratio,[4]; [11],0/4
"CC(C)c1cc(O)c(C(C)(C)C)cc1Br [Ex. 204, 4-Bromo-2-tert-butyl-5-isopropyl-phenol]",animals protected/animals tested,"[1]; 100 mg/kg, TPE 0.25 hrs",1/4
same,animals protected/animals tested,"[2]; 100 mg/kg, TPE 0.5 hrs",2/4
same,Toxicity Ratio,[4]; [7],0/8
same,Toxicity Ratio,[4]; [9],0/4
"CCCc1ccc(C(C)C)cc1O [Ex. 95, 5-Isopropyl-2-propyl-phenol]",animals protected/animals tested,"[1]; 30 mg/kg, TPE 0.5 hrs",0/4
same,animals protected/animals tested,"[1]; 100 mg/kg, TPE 0.5 hrs",0/4
same,animals protected/animals tested,"[1]; 300 mg/kg, TPE 0.5 hrs",1/4
same,animals protected/animals tested,"[2]; 10 mg/kg, TPE 0.5 hrs",3/4
same,animals protected/animals tested,"[2]; 30 mg/kg, TPE 0.5 hrs",0/4
same,animals protected/animals tested,"[2]; 300 mg/kg, TPE 0.5 hrs",3/4
same,Toxicity Ratio,"[4]; Test 7-1 table, IP, 10 mg/kg, TPT 0.5 hrs",1/8
same,Toxicity Ratio,"[4]; Test 7-1 table, IP, 30 mg/kg, TPT 0.5 hrs",0/8
same,Toxicity Ratio,[4]; [10],3/8
"Cc1cc(O)c(C(C)C)cc1Br [Ex. 132, 4-Bromo-2-isopropyl-5-methyl-phenol]",animals protected/animals tested,"[1]; 100 mg/kg, TPE 1 hrs",2/4
same,Average Seizure Score,[5]; 28 mg/kg,4.5
same,Seizure Ratio,[5]; 28 mg/kg,1/4
same,animals protected/animals tested,"[2]; 100 mg/kg, TPE 0.5 hrs",3/4
same,ED50,[2]; TPE 0.5 hrs,28 mg/kg
same,animals protected/animals tested,[3]; TPE 2 hrs,2/4
same,Toxicity Ratio,"[4]; MES screen table, IP, 100 mg/kg, TPT 0.5 hrs",1/8
same,Toxicity Ratio,[4]; [9],0/4
same,Toxicity Ratio,[4]; [11],0/4
same,TD50 at 4 hrs,"[4]; mouse, in vivo, intraperitoneal, Test 7-2 table, TPT 4 hrs",> 200 mg/kg
"Cc1cc(Br)c(C(C)(C)C)cc1O [Ex. 25, 4-Bromo-5-tert-butyl-2-methyl-phenol]",animals protected/animals tested,"[2]; 30 mg/kg, TPE 0.5 hrs",2/4
same,animals protected/animals tested,"[2]; 100 mg/kg, TPE 0.5 hrs",2/4
same,animals protected/animals tested,"[2]; 300 mg/kg, TPE 2 hrs",4/4
same,Toxicity Ratio,[4]; [8],0/8
same,Toxicity Ratio,[4]; [9],0/8
same,Toxicity Ratio,[4]; [10],4/8
"Cc1cc(Br)c(C(C)C)cc1O [Ex. 9, 4-bromo-5-isopropyl-2-methyl phenol]",animals protected/animals tested,"[1]; 100 mg/kg, TPE 0.25 hrs",1/4
same,Average Seizure Score,[5]; 19 mg/kg,3.75
same,Seizure Ratio,[5]; 19 mg/kg,1/4
same,animals protected/animals tested,"[2]; 100 mg/kg, TPE 0.5 hrs",3/4
same,ED50,[2]; TPE 0.5 hrs,19 mg/kg
same,animals protected/animals tested,[6],0/4
same,Toxicity Ratio,[4]; [7],0/8
same,Toxicity Ratio,[4]; [9],0/4
same,Toxicity Ratio,"[4]; Test 7-1 table, Oral, 100 mg/kg, TPT N/A",0/4
same,TD50 at 6 hrs,"[4]; mouse, in vivo, intraperitoneal, Test 7-2 table, TPT 6 hrs",398 mg/kg
